Assay results: patent US10750742B2, “Pesticidally active pyrazole derivatives” (SYNGENTA PARTICIPATIONS AG, priority 2015, dated 2020)
Read-outs that look alike come from different tables or passages of the source.

Experiments:
Type in all cases: in vivo
[1] = system: Spodoptera littoralis; assay: Spodoptera littoralis (Egyptian cotton leaf worm), cotton leaf disc spray test; conditions: foliar, 72 h, read-out: control (at least one of mortality, anti-feedant effect, growth inhibition); for percent control (mortality, anti-feedant effect or growth inhibition) at 200 ppm: application rate 200 ppm, L1 larvae, 3 days after infestation
Description: Spodoptera littoralis (Egyptian Cotton Leaf Worm)
Cotton leaf discs were placed on agar in 24-well microtiter plates and sprayed with aqueous test solutions prepared from 10′000 ppm DMSO stock solutions. After drying the leaf discs were infested with five L1 larvae. The samples were assessed for mortality, anti-feedant effect, and growth inhibition in comparison to untreated samples 3 days after infestation. Control of Spodoptera littoralis by a test sample is when at least one of mortality, anti-feedant effect, and growth inhibition is higher than the untreated sample.

[2] = system: Plutella xylostella; assay: Plutella xylostella (diamond back moth), artificial diet test; conditions: 120 h, read-out: control (mortality and growth inhibition)
Description: Plutella xylostella (Diamond Back Moth):
24-well microtiter plates with artificial diet were treated with aqueous test solutions prepared from 10′000 ppm DMSO stock solutions by pipetting. After drying, the plates were infested with L2 larvae (10 to 15 per well). The samples were assessed for mortality and growth inhibition in comparison to untreated samples 5 days after infestation.

[3] = system: Diabrotica balteata; assay: Diabrotica balteata (corn root worm), maize sprout test; conditions: 96 h, read-out: control (mortality and growth inhibition)
Description: Diabrotica balteata, (Corn Root Worm)
Maize sprouts, placed on an agar layer in 24-well microtiter plates were treated with aqueous test solutions prepared from 10′000 ppm DMSO stock solutions by spraying. After drying, the plates were infested with L2 larvae (6 to 10 per well). The samples were assessed for mortality and growth inhibition in comparison to untreated samples 4 days after infestation.

[4] = system: Thrips tabaci; assay: Thrips tabaci (onion thrips), sunflower leaf disc test; conditions: foliar, 144 h, read-out: control (mortality)
Description: Thrips tabaci (Onion Thrips):
Sunflower leaf discs were placed on agar in 24-well microtiter plates and sprayed with aqueous test solutions prepared from 10′000 ppm DMSO stock solutions. After drying the leaf discs were infested with a thrips population of mixed ages. The samples were assessed for mortality 6 days after infestation.

[5] = system: Tetranychus urticae; assay: Tetranychus urticae (two-spotted spider mite), bean leaf disc test; conditions: foliar, 192 h, read-out: control (mortality on mixed population, mobile stages)
Description: Tetranychus urticae (Two-Spotted Spider Mite):
Bean leaf discs on agar in 24-well microtiter plates were sprayed with aqueous test solutions prepared from 10′000 ppm DMSO stock solutions. After drying the leaf discs were infested with a mite population of mixed ages. The samples were assessed for mortality on mixed population (mobile stages) 8 days after infestation.

[6] = system: Euschistus heros; assay: Euschistus heros (neotropical brown stink bug), soybean leaf test; conditions: 120 h, read-out: effect in at least one of the two categories (mortality or growth inhibition); for percent effect (mortality or growth inhibition) at 200 ppm: application rate 200 ppm, N2 nymphs, 5 days after infestation
Description: Euschistus heros (Neotropical Brown Stink Bug):
Soybean leaves on agar in 24-well microtiter plates were sprayed with aqueous test solutions prepared from 10′000 ppm DMSO stock solutions. After drying the leaves were infested with N2 nymphs. The samples were assessed for mortality and growth inhibition in comparison to untreated samples 5 days after infestation.

[7] = system: Myzus persicae; assay: Myzus persicae (green peach aphid), sunflower leaf disc spray test; conditions: foliar, 144 h
Description: (§1) Myzus persicae (Green Peach Aphid):
Sunflower leaf discs were placed on agar in a 24-well microtiter plate and sprayed with test solutions at an application rate of 200 ppm. After drying, the leaf discs were infested with an aphid population of mixed ages. After an incubation period of 6 DAT, samples were checked for mortality. The following compounds gave at least 80% mortality of Myzus persicae: compounds 1,2, 3, 4, 5, 6, 11, 12, 15, 17, 18, 19, 20, 23, 24, 25, 26, 27, 30, 32, 33, 34 35, 41, 43, 44, 47, 50, 55, 58, 59, 60, 61, 62, 63, 64, 65 and 66.

[8] = system: Myzus persicae; assay: Myzus persicae (green peach aphid), sucrose solution / Parafilm test; conditions: 120 h
Excerpt: as §1
Test compounds were applied by pipette into 24 well plates and mixed with Sucrose solution. Application rate: 12.5 ppm. The plates were closed with a stretched parafilm. A plastic stencil with 24 holes is placed onto the plate and infested pea seedlings were placed directly on the Parafilm. The infested plate is closed with a gel blotting paper and another plastic stencil and then turned upside down. 5 days after infestation the samples were checked on mortality.

[9] = application rate 200 ppm, L2 larvae, 5 days after infestation
[10] = application rate 200 ppm, L2 larvae, 4 days after infestation
[11] = application rate 200 ppm, mixed ages, 6 days after infestation
[12] = application rate 200 ppm, 8 days after infestation
[13] = application rate 200 ppm, mixed ages, 6 DAT, read-out: mortality
[14] = test rate of 12 ppm, sucrose solution, 5 days after infestation, read-out: mortality

Cn1nc(OCC(F)(F)F)c(C(F)(F)F)c1-n1cc(-c2ccc(Cl)c(C(=O)NC3CC3)c2)cn1 [compound 2]
≥ 80%: percent control (mortality, anti-feedant effect or growth inhibition) at 200 ppm [1] | mortality at 200 ppm [2, 9] | mortality at 200 ppm [3, 10] | mortality at 200 ppm [4, 11] | mortality at 200 ppm [5, 12] | percent effect (mortality or growth inhibition) at 200 ppm [6] | mortality at 200 ppm [7, 13] | mortality at 12 ppm [8, 14]

Cn1nc(OCC(F)(F)F)c(C(F)(F)F)c1-n1cc(-c2ccc(Cl)c(C(=O)NC3(C#N)CC3)c2)cn1 [compound 3]
≥ 80%: percent control (mortality, anti-feedant effect or growth inhibition) at 200 ppm [1] | mortality at 200 ppm [2, 9] | mortality at 200 ppm [3, 10] | mortality at 200 ppm [4, 11] | mortality at 200 ppm [5, 12] | percent effect (mortality or growth inhibition) at 200 ppm [6] | mortality at 200 ppm [7, 13] | mortality at 12 ppm [8, 14]

Cn1nc(OC(F)(F)C(F)F)c(C(F)(F)F)c1-n1cc(-c2ccc(Cl)c(C(=O)NC3(C#N)CC3)c2)cn1 [compound 11]
≥ 80%: percent control (mortality, anti-feedant effect or growth inhibition) at 200 ppm [1] | mortality at 200 ppm [2, 9] | mortality at 200 ppm [3, 10] | mortality at 200 ppm [4, 11] | mortality at 200 ppm [5, 12] | percent effect (mortality or growth inhibition) at 200 ppm [6] | mortality at 200 ppm [7, 13] | mortality at 12 ppm [8, 14]

Cn1nc(OC(F)(F)C(F)(F)Br)c(C(F)(F)F)c1-n1cc(-c2ccc(Cl)c(C(=O)NC3(C#N)CC3)c2)cn1 [compound 12]
≥ 80%: percent control (mortality, anti-feedant effect or growth inhibition) at 200 ppm [1] | mortality at 200 ppm [2, 9] | mortality at 200 ppm [3, 10] | mortality at 200 ppm [4, 11] | mortality at 200 ppm [5, 12] | percent effect (mortality or growth inhibition) at 200 ppm [6] | mortality at 200 ppm [7, 13] | mortality at 12 ppm [8, 14]

Cn1nc(OC(F)(F)C(F)OC(F)(F)C(F)(F)C(F)(F)F)c(C(F)(F)F)c1-n1cc(-c2ccc(Cl)c(C(=O)NC3(C#N)CC3)c2)cn1 (centres unmarked) [compound 17]
≥ 80%: mortality at 200 ppm [1] | mortality at 200 ppm [2] | mortality at 200 ppm [3] | mortality at 200 ppm [4] | mortality at 200 ppm [5] | percent control (mortality or growth inhibition) at 200 ppm [6] | mortality at 200 ppm [7] | mortality at 12 ppm [8]

Cn1nc(OCC(F)(F)OC(F)(F)C(F)(F)OC(F)(F)F)c(C(F)(F)F)c1-n1cc(-c2ccc(Cl)c(C(=O)NC3(C#N)CC3)c2)cn1 [compound 18]
≥ 80%: percent control (mortality, anti-feedant effect or growth inhibition) at 200 ppm [1] | mortality at 200 ppm [2, 9] | mortality at 200 ppm [3, 10] | mortality at 200 ppm [4, 11] | mortality at 200 ppm [5, 12] | percent effect (mortality or growth inhibition) at 200 ppm [6] | mortality at 200 ppm [7, 13] | mortality at 12 ppm [8, 14]

Cn1nc(OCC(F)(F)C(F)(F)C(F)(F)F)c(C(F)(F)F)c1-n1cc(-c2ccc(Cl)c(C(=O)NC3(C#N)CC3)c2)cn1 [compound 19]
≥ 80%: mortality at 200 ppm [1] | mortality at 200 ppm [2] | mortality at 200 ppm [3] | mortality at 200 ppm [4] | mortality at 200 ppm [5] | percent control (mortality or growth inhibition) at 200 ppm [6] | mortality at 200 ppm [7] | mortality at 12 ppm [8]

Cn1nc(OCC(F)(F)C(F)(F)C(F)(F)C(F)F)c(C(F)(F)F)c1-n1cc(-c2ccc(Cl)c(C(=O)NC3(C#N)CC3)c2)cn1 [compound 20]
≥ 80%: mortality at 200 ppm [1] | mortality at 200 ppm [2] | mortality at 200 ppm [3] | mortality at 200 ppm [4] | mortality at 200 ppm [5] | percent control (mortality or growth inhibition) at 200 ppm [6] | mortality at 200 ppm [7] | mortality at 12 ppm [8]

Cn1nc(OCC(F)F)c(C(F)(F)F)c1-n1cc(-c2ccc(Cl)c(C(=O)NC3(C#N)CC3)c2)cn1 [compound 23]
≥ 80%: percent control (mortality, anti-feedant effect or growth inhibition) at 200 ppm [1] | mortality at 200 ppm [2, 9] | mortality at 200 ppm [3, 10] | mortality at 200 ppm [4, 11] | mortality at 200 ppm [5, 12] | percent effect (mortality or growth inhibition) at 200 ppm [6] | mortality at 200 ppm [7, 13] | mortality at 12 ppm [8, 14]

Cn1nc(OCC(F)(F)OC(F)(F)C(F)(F)OC(F)(F)F)c(C(F)(F)F)c1-n1cc(-c2ccc(Cl)c(C(=O)NC3CC3)c2)cn1 [compound 25]
≥ 80%: percent control (mortality, anti-feedant effect or growth inhibition) at 200 ppm [1] | mortality at 200 ppm [2, 9] | mortality at 200 ppm [3, 10] | mortality at 200 ppm [4, 11] | mortality at 200 ppm [5, 12] | percent effect (mortality or growth inhibition) at 200 ppm [6] | mortality at 200 ppm [7, 13] | mortality at 12 ppm [8, 14]

Cn1nc(OCC(F)(F)C(F)(F)C(F)(F)F)c(C(F)(F)F)c1-n1cc(-c2ccc(Cl)c(C(=O)NC3CC3)c2)cn1 [compound 26]
≥ 80%: mortality at 200 ppm [1] | mortality at 200 ppm [2] | mortality at 200 ppm [3] | mortality at 200 ppm [4] | mortality at 200 ppm [5] | percent control (mortality or growth inhibition) at 200 ppm [6] | mortality at 200 ppm [7] | mortality at 12 ppm [8]

Cn1nc(OC(F)(F)C(F)Cl)c(C(F)(F)F)c1-n1cc(-c2ccc(Cl)c(C(=O)NC3(C#N)CC3)c2)cn1 (centres unmarked) [compound 44]
≥ 80%: mortality at 200 ppm [3, 10] | mortality at 200 ppm [4, 11] | mortality at 200 ppm [5, 12] | percent effect (mortality or growth inhibition) at 200 ppm [6] | mortality at 200 ppm [7, 13] | mortality at 12 ppm [8, 14]

Cc1ccc(-c2cnn(-c3c(C(F)(F)F)c(OC(F)(F)C(F)C(F)(F)F)nn3C)c2)cc1C(=O)NC1CC1 (centres unmarked) [compound 58]
≥ 80%: percent control (mortality, anti-feedant effect or growth inhibition) at 200 ppm [1] | mortality at 200 ppm [2, 9] | mortality at 200 ppm [3, 10] | mortality at 200 ppm [4, 11] | mortality at 200 ppm [5, 12] | mortality at 200 ppm [7, 13] | mortality at 12 ppm [8, 14]
